Experimental data: patent US12077503B2, “Substituted cyclic amides and their use as herbicides” (FMC CORPORATION, priority 2015, dated 2024)
Read-outs that look alike come from different tables or passages of the source.

Experiments:
Assay type in all cases: in vivo
Kochia (Kochia scoparia) [1] = assay: Test A preemergence; conditions: Bassia scoparia, pre-emergence, 240 h; for pest or weed control at 125 g/ha: 125 g ai/ha; for pest or weed control at 500 g/ha: 500 g ai/ha
Procedure, shortened: (§1)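 Visual injury, scored on a 0–100 scale relative to untreated controls, was recorded about 10 d after application. Treatments were a preemergence soil spray over planted seeds or a postemergence spray on plants at the one- to two-leaf stage, 2 to 10 cm tall, all in loam soil–sand blend in the greenhouse.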

[2] = tested on: barnyardgrass (Echinochloa crus-galli); assay: Test B flooded paddy test; conditions: Echinochloa crus-galli, Flood, 250 g ai/ha, read-out: Barnyardgrass plant response rating
Procedure, shortened: (§2)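 Percent control, visually estimated after 13–15 d in the greenhouse on a 0–100 basis, compares treated pots with untreated ones; compound was put into paddy water 3 cm above the soil when plants had two leaves.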

rice (Oryra sativa) = assay: Test B flooded paddy test; conditions: Oryza sativa, Flood, 250 g ai/ha, read-out: Rice plant response rating
Procedure, shortened: as §2

[3] = tested on: sedge, umbrella (small-flower umbrella sedge, Cyperus difformis); assay: Test B flooded paddy test; conditions: Cyperus difformis, Flood, 250 g ai/ha, read-out: Sedge, Umbrella plant response rating
Procedure, shortened: as §2

[4] = tested on: ducksalad (Heteranthera limosa); assay: Test B flooded paddy test; conditions: Heteranthera limosa, Flood, 250 g ai/ha, read-out: Ducksalad plant response rating
Procedure, shortened: as §2

[5] = tested on: ragweed (common ragweed, Ambrosia elatior); assay: Test A postemergence; conditions: Ambrosia artemisiifolia, post-emergence, 240 h, postemergence; for pest or weed control at 125 g/ha: 125 g ai/ha; for pest or weed control at 500 g/ha: 500 g ai/ha, 0 to 100 scale, 0 is no effect, 100 is complete control, read-out: Ragweed plant response rating
Procedure, shortened: as §1

[6] = tested on: barnyardgrass (Echinochloa crus-galli); assay: Test A postemergence; conditions: Echinochloa crus-galli, post-emergence, 240 h, postemergence; for pest or weed control at 125 g/ha: 125 g ai/ha; for pest or weed control at 500 g/ha: 500 g ai/ha, 0 to 100 scale, 0 is no effect, 100 is complete control, read-out: Barnyardgrass plant response rating
Procedure, shortened: as §1

[7] = tested on: blackgrass (Alopecurus myosuroides); assay: Test A postemergence; conditions: Alopecurus myosuroides, post-emergence, 240 h, postemergence; for pest or weed control at 125 g/ha: 125 g ai/ha; for pest or weed control at 500 g/ha: 500 g ai/ha, 0 to 100 scale, 0 is no effect, 100 is complete control, read-out: Blackgrass plant response rating
Procedure, shortened: as §1

[8] = tested on: giant foxtail (Setaria faberii); assay: Test A postemergence; conditions: Setaria faberi, post-emergence, 240 h, postemergence; for pest or weed control at 125 g/ha: 125 g ai/ha; for pest or weed control at 500 g/ha: 500 g ai/ha, 0 to 100 scale, 0 is no effect, 100 is complete control, read-out: Foxtail, Giant plant response rating
Procedure, shortened: as §1

[9] = tested on: Galium (catchweed bedstraw, Galium aparine); assay: Test A postemergence; conditions: Galium, post-emergence, 240 h, postemergence; for pest or weed control at 125 g/ha: 125 g ai/ha; for pest or weed control at 500 g/ha: 500 g ai/ha, 0 to 100 scale, 0 is no effect, 100 is complete control, read-out: Galium plant response rating
Procedure, shortened: as §1

corn (Zea mays) = assay: Test A postemergence; conditions: Zea mays, post-emergence, 240 h, postemergence; for plant injury at 125 g/ha: visual injury vs untreated controls after approx. 10 d, 0 = no effect, 100 = complete control, read-out: Corn plant response rating (0 to 100 scale); for plant injury at 500 g/ha: 500 g ai/ha, 0 to 100 scale, 0 is no effect, 100 is complete control, read-out: Corn plant response rating
Procedure, shortened: as §1

Kochia (Kochia scoparia) [10] = assay: Test A postemergence; conditions: Bassia scoparia, post-emergence, 240 h, 125 g ai/ha, postemergence; visual injury after approximately 10 d; 0 to 100 scale (0 no effect, 100 complete control); read-out: Plant response rating, Kochia
Procedure, shortened: as §1

[11] = tested on: ryegrass, Italian (Italian ryegrass, Lolium multiflorum); assay: Test A postemergence; conditions: Lolium multiflorum, post-emergence, 240 h, postemergence; for pest or weed control at 125 g/ha: 125 g ai/ha; for pest or weed control at 500 g/ha: 500 g ai/ha, 0 to 100 scale, 0 is no effect, 100 is complete control, read-out: Ryegrass, Italian plant response rating
Procedure, shortened: as §1

[12] = tested on: pigweed (Amaranthus retroflexus); assay: Test A postemergence; conditions: Amaranthus retroflexus, post-emergence, 240 h, postemergence; for pest or weed control at 125 g/ha: 125 g ai/ha; for pest or weed control at 500 g/ha: 500 g ai/ha, 0 to 100 scale, 0 is no effect, 100 is complete control, read-out: Pigweed plant response rating
Procedure, shortened: as §1

[13] = tested on: wheat (Triticum aestivum); assay: Test A postemergence; conditions: Triticum aestivum, post-emergence, 240 h, 125 g ai/ha, postemergence, visual injury vs untreated controls after approx. 10 d; 0 = no effect, 100 = complete control; read-out: Wheat plant response rating (0 to 100 scale)
Procedure, shortened: as §1

[14] = scale of 0 to 100 where 0 is no effect and 100 is complete control
[15] = preemergence, visual injury rating, 0 to 100 scale where 0 is no effect and 100 is complete control, approximately 10 d, read-out: Kochia plant response rating
[16] = preemergence, 0 to 100 scale where 0 is no effect and 100 is complete control, read-out: Kochia plant response rating
[17] = 0 to 100 scale where 0 is no effect and 100 is complete control
[18] = visual injury vs untreated controls after approx. 10 d, 0 = no effect, 100 = complete control, read-out: Ragweed plant response rating (0 to 100 scale)
[19] = visual injury vs untreated controls after approx. 10 d, 0 = no effect, 100 = complete control, read-out: Barnyardgrass plant response rating (0 to 100 scale)
[20] = visual injury vs untreated controls after approx. 10 d, 0 = no effect, 100 = complete control, read-out: Blackgrass plant response rating (0 to 100 scale)
[21] = visual injury vs untreated controls after approx. 10 d, 0 = no effect, 100 = complete control, read-out: Foxtail, Giant plant response rating (0 to 100 scale)
[22] = visual injury vs untreated controls after approx. 10 d, 0 = no effect, 100 = complete control, read-out: Galium plant response rating (0 to 100 scale)
[23] = visual injury vs untreated controls after approx. 10 d, 0 = no effect, 100 = complete control, read-out: Ryegrass, Italian plant response rating (0 to 100 scale)
[24] = visual injury vs untreated controls after approx. 10 d, 0 = no effect, 100 = complete control, read-out: Pigweed plant response rating (0 to 100 scale)

Structure (SMILES) | pest or weed control at 125 g/ha (Kochia (Kochia scoparia) [1]; [15]) | pest or weed control at 500 g/ha (Kochia (Kochia scoparia) [1]; [16]) | pest or weed control at 250 g/ha [2, 17] | pest or weed control at 250 g/ha (rice (Oryra sativa); [17]) | pest or weed control at 250 g/ha [3, 17] | pest or weed control at 250 g/ha [4, 17] | pest or weed control at 125 g/ha [5, 18] | pest or weed control at 500 g/ha [5] | pest or weed control at 125 g/ha [6, 19] | pest or weed control at 500 g/ha [6] | plant injury at 125 g/ha [13] | pest or weed control at 125 g/ha [7, 20] | pest or weed control at 500 g/ha [7] | pest or weed control at 125 g/ha [8, 21] | pest or weed control at 500 g/ha [8] | pest or weed control at 125 g/ha [9, 22] | pest or weed control at 500 g/ha [9] | plant injury at 125 g/ha (corn (Zea mays); 125 g ai/ha) | plant injury at 500 g/ha (corn (Zea mays)) | pest or weed control at 125 g/ha [11, 23] | other results
Cc1cc([C@H]2CNC(=O)[C@@H]2C(=O)Nc2ccc(F)cc2F)ccc1Cl [Compound 791] | – | – | – | – | – | – | – | – | – | – | – | – | – | – | – | – | – | – | – | – | pest or weed control at 125 g/ha (Kochia (Kochia scoparia) [1]; preemergence, visual rating after approx. 10 d, 0 to 100 scale where 0 is no effect and 100 is complete control, read-out: Plant response rating, Kochia): 50%; pest or weed control at 500 g/ha (Kochia (Kochia scoparia) [1]; Preemergence, visual injury vs untreated controls after approximately 10 d, read-out: Kochia plant response rating (0 to 100 scale where 0 is no effect and 100 is complete control)): 60%; pest or weed control at 250 g/ha [2, 14]: 0%; pest or weed control at 250 g/ha (rice (Oryra sativa); [14]): 0%; pest or weed control at 250 g/ha [3, 14]: 0%; pest or weed control at 250 g/ha [4, 14]: 100%; pest or weed control at 125 g/ha ([5]; visual injury after approximately 10 d, 0 to 100 scale (0 no effect, 100 complete control), read-out: Plant response rating, Ragweed): 0%; pest or weed control at 125 g/ha ([6]; visual injury after approximately 10 d, 0 to 100 scale (0 no effect, 100 complete control), read-out: Plant response rating, Barnyardgrass): 60%; pest or weed control at 125 g/ha ([7]; visual injury after approximately 10 d, 0 to 100 scale (0 no effect, 100 complete control), read-out: Plant response rating, Blackgrass): 0%; pest or weed control at 125 g/ha ([8]; visual injury after approximately 10 d, 0 to 100 scale (0 no effect, 100 complete control), read-out: Plant response rating, Foxtail, Giant): 30%; pest or weed control at 125 g/ha ([9]; visual injury after approximately 10 d, 0 to 100 scale (0 no effect, 100 complete control), read-out: Plant response rating, Galium): 60%; Corn plant response rating (crop injury, 0 = no effect, 100 = complete kill) at 125 g/ha (corn (Zea mays); 125 g ai/ha, visual injury after approximately 10 d, 0 to 100 scale (0 no effect, 100 complete control)): 0%; pest or weed control at 125 g/ha (Kochia (Kochia scoparia) [10]): 20%; pest or weed control at 125 g/ha ([11]; visual injury after approximately 10 d, 0 to 100 scale (0 no effect, 100 complete control), read-out: Plant response rating, Ryegrass, Italian): 0%; pest or weed control at 125 g/ha ([12]; visual injury after approximately 10 d, 0 to 100 scale (0 no effect, 100 complete control), read-out: Plant response rating, Pigweed): 0%
Cc1cccc([C@H]2CN(C)C(=O)[C@@H]2C(=O)Nc2cccc(F)c2C)c1 [Compound 1233] | 70% | 70% | 80% | 15% | 0% | 100% | 0% | 30% | 80% | 80% | 40% | 0% | 40% | 80% | 90% | 20% | 60% | 70% | 80% | 40% | pest or weed control at 500 g/ha [11]: 50%; pest or weed control at 125 g/ha [12, 24]: 0%; pest or weed control at 500 g/ha [12]: 20%
Cc1cccc([C@H]2CN(C)C(=O)[C@@H]2C(=O)Nc2ccc(F)c(F)c2F)c1 [Compound 1231] | 70% | 90% | 85% | 0% | 0% | 100% | 0% | 30% | 80% | 80% | 50% | 0% | 40% | 80% | 90% | 50% | 70% | 70% | 80% | 40% | pest or weed control at 500 g/ha [11]: 50%; pest or weed control at 125 g/ha [12, 24]: 0%; pest or weed control at 500 g/ha [12]: 50%
